Measured values: patent publication US20220120736A1, “METHODS AND ASSAYS FOR MODULATING GENE TRANSCRIPTION BY MODULATING CONDENSATES” (Whitehead Institute for Biomedical Research, priority 2018, published 2022)

Legend:
[1] = tested on: ER LBD-MED1 condensate in U2OS-Lac cells; experiment: LAC binding assay (ER LBD tethered to Lac array); format: cell-based; conditions: for MED1-containing condensate formation at tethered ER LBD: U2OS-Lac cells, 45 minutes, 10 nM B-Estradiol or 1 uM 4-Hydroxytamoxifen
Description: Constructs were assembled by NEB HIFI cloning in pSV2 mammalian expression vector containing an SV40 promoter driving expression of a CFP-LacI fusion protein. The activation domains and mutant activation domains of ESR1 were fused by the c-terminus to this recombinant protein, joined by the linker sequence […] (SEQ ID NO: 14). For some experiments a variant plasmid with mCherry in place of CFP was used. […] Cells were then plated on fibronectin-coated glass coverslips and transfected using lipofectamine 3000 (Thermofisher L3000015). For high MED1 conditions, a construct with a mammalian expression vector containing a PGK promoter driving the expression of MED1 fused to GFP was co-transfected. […] Following treatment, cells were fixed and immunofluorescence was performed with a MED1 antibody as described above.
For analysis of Lac array data, custom Python scripts were written to process and analyze image data gathered in Lac and tagged-protein channels. Nuclear stains were blurred with a Gaussian filter (sigma=2.0) and clustered into 2 clusters (nuclei and background) by K-means. The nuclei were then labeled with the python scikit-image package using the measure.label function. To segment Lac spots, the Lac image channel was blurred with a Gaussian filter (sigma=2.0), and an intensity threshold (mean+1.5*std) was applied to the image. Segmented regions (also determined by measure.label) were then filtered based on minimum area (150 pixels), maximum area (2000 pixels), circularity (c=4pi*area/perimeter^2; 0.8), and presence in a nucleus as defined by the mask described above. A norm enrichment ratio was calculated by determining the mean intensity of the tagged-protein in the segmented Lac spot and dividing it by the mean intensity of the tagged-protein present in the same whole nucleus.

[2] = tested on: ER Y537S, ER D538G, ER-YAP1, ER-PCDH11X condensates with MED1; experiment: In vitro droplet formation assay, mutant ER GFP fusion proteins and MED1; format: biochemical; conditions: all four mutant ER proteins; ligand 100 uM
Description: Recombinant GFP or mCherry fusion proteins were concentrated and desalted to an appropriate protein concentration and 125 mM NaCl using Amicon Ultra centrifugal filters (30K MWCO, Millipore). Recombinant proteins were added to solutions at varying concentrations with indicated final salt and 10% PEG-8000 as crowding agent in Droplet Formation Buffer (50 mM Tris-HCl pH 7.5, 10% glycerol, 1 mM DTT). The protein solution was immediately loaded onto a homemade chamber comprising a glass slide with a coverslip attached by two parallel strips of double-sided tape. Slides were then imaged with an Andor confocal microscope with a 150× objective. Unless indicated, images presented are of droplets settled on the glass coverslip. […] One microliter of this concentrated stock was used in a 10 uL droplet formation reaction to achieve a final concentration of 100 uM. To calculate enrichment for the in vitro droplet assay, droplets were defined as a region of interest in FIJI by the MED1 scaffold channel, and the maximum signal of the ER client within that droplet was determined. Alternatively, maximum signal of MED1 was measured. In all cases, the maximum signal was divided by the background client signal in the image to generate a Cin/out.

Structure (SMILES)	MED1-containing condensate formation at tethered ER LBD [1]	MED1 condensate formation at tethered ER LBD, dependence on estrogen ([1]; normal ER)	Condensate formation of mutant ER proteins with MED1 [2]	MED1 condensate generation by tethered ER LBD in the presence of tamoxifen ([1]; MED1 overexpressed)	MED1 condensate generation by tethered ER LBD in the presence of tamoxifen ([1]; normal MED1 levels)
C[C@]12CC[C@@H]3c4ccc(O)cc4CC[C@H]3[C@@H]1CC[C@@H]2O [estrogen, B-Estradiol]	generated a MED1-containing condensate	only in the presence of estrogen	estrogen-independent		
CC/C(=C(\c1ccccc1)c1ccc(OCCN(C)C)cc1)c1ccccc1 [tamoxifen]	prevented		tamoxifen-insensitive	generated a MED1 condensate	did not generate a MED1 condensate
